From ChEMBL document CHEMBL3045653, “A novel amino acid substitution Ala-122-Tyr in ALS confers high-level and broad resistance across ALS-inhibiting herbicides” (Pest Manag Sci, 2012)
pIC50: −log10 of the molar value.

Target: T1, Acetolactate synthase (Raphanus raphanistrum, UniProt J7HAW4)
T1 sequence (J7HAW4 whole entry): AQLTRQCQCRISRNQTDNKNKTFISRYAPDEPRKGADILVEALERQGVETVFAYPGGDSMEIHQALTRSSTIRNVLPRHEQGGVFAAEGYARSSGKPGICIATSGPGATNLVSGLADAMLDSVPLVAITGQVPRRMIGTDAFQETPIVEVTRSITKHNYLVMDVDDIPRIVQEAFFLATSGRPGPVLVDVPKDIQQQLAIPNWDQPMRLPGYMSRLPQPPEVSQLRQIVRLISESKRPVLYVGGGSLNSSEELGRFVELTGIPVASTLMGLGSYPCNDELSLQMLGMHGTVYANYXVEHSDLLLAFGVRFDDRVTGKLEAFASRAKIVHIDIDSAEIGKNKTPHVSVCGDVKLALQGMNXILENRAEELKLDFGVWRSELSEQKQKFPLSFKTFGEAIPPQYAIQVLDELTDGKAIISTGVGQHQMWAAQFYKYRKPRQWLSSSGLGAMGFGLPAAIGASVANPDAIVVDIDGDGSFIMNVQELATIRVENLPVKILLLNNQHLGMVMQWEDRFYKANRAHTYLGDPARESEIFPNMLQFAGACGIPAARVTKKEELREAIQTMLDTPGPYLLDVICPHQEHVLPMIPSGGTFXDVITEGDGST
Test: Inhibition of ALS in ALS-herbicide-susceptible Raphanus raphanistrum […] (wild radish)
Settings: pooled result: one value given for 2 cell lines, strains, targets or settings; read-out: I50

**Q.** How did the pIC50 turn out when `Cc1cc(C)nc(NC(=O)NS(=O)(=O)c2ccccc2C(=O)O)n1` [SULFOMETURON] was run?
**A.** 7.64
